Measured values taken from paper PMC9127186, “Molecular Basis Underlying Hepatobiliary and Renal Excretion of Phenolic Acids of Salvia miltiorrhiza Roots (Danshen)” (Frontiers in Pharmacology, 2022).

biological target: T1, rat Bsep (Rattus norvegicus, UniProt O70127); test: Vesicular transport assay, inside-out membrane vesicles expressing rat Bsep; conditions: Danshen phenolic acid at 100 μM final concentration, 10 min; rat Bsep vesicles
T1 sequence (O70127 1-1321): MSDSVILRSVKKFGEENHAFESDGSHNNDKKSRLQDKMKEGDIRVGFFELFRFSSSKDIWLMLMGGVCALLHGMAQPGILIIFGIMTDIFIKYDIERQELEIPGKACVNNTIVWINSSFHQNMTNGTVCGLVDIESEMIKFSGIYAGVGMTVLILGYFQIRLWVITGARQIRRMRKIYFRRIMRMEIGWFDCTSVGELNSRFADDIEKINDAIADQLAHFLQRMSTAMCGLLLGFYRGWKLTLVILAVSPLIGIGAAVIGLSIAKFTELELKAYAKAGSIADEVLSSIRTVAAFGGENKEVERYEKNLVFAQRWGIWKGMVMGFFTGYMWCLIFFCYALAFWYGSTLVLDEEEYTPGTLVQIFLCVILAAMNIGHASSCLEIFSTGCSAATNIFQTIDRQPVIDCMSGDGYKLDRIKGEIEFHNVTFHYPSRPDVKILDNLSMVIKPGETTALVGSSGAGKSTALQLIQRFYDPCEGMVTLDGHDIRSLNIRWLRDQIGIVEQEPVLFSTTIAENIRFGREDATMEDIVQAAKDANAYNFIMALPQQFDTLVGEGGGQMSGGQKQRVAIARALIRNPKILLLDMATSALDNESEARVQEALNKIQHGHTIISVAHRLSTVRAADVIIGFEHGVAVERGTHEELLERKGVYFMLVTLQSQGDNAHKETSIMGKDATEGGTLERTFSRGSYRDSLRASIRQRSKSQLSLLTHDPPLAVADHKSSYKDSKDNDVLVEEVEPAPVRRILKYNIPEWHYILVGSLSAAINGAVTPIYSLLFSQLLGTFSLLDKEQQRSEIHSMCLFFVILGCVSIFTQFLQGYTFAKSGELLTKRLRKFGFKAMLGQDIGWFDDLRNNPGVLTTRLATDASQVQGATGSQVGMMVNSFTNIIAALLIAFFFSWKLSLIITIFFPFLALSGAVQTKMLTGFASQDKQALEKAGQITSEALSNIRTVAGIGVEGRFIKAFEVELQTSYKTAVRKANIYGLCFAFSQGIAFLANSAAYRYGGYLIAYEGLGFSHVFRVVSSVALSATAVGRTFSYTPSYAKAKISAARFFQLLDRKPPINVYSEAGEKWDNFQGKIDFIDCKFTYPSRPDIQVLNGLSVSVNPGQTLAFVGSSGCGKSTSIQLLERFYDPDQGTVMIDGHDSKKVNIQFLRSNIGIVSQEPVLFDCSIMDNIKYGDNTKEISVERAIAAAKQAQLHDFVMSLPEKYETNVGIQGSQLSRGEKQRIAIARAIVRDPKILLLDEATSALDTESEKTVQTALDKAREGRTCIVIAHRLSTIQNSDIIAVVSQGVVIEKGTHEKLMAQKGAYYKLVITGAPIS
Procedure: Inside-out membrane vesicles (5 mg protein/mL), prepared from insect cells expressing human multidrug resistance-associated protein (MRP) 2, MRP3, MRP4, breast cancer resistance protein (BCRP), bile salt export pump (BSEP), and multidrug resistance protein (MDR) one and rat Mrp2, Mrp4, Bcrp, and Bsep, and vesicles (5 mg protein/mL; prepared from the insect cells expressing no ABC transporter; serving as negative control) were obtained from Genomembrane (Kanazawa, Japan).
The test Danshen compounds at 100 µM final concentration were separately incubated with the membrane vesicles for 10 min. Buffer C (50 mM MOPS-tris, 70 mM KCl, 7.5 mM MgCl2, pH 7.0) was used for preincubation and incubation, while buffer D (40 mM MOPS-tris, 70 mM KCl, pH 7.0) was used for vesicle washing. The transport rate (pmol/mg protein/min) of the test Danshen compound was calculated using Equation (2): Transport=(CV×VV)/T/WV (2) where C V, V V, T, and W V represent concentration of the compound in vesicular lysates supernatant (μM), volume of the lysates (μL), incubation time (10 min), and amount of vesicle protein amount per well (0.05 mg), respectively. Differential transport of the test Danshen compound between ATP-containing vesicles and AMP-containing vesicles was defined as net transport ratio (TransportATP/TransportAMP ratio). […] All the incubation samples were analyzed by liquid chromatography/mass spectrometry.

Compound	TransportATP/TransportAMP ratio (net transport ratio)
O=C(/C=C/c1ccc(O)c2c1[C@H](C(=O)O)[C@@H](c1ccc(O)c(O)c1)O2)O[C@H](Cc1ccc(O)c(O)c1)C(=O)O [Lithospermic acid, lithospermic acid]	1.69 ± 0.37
O=C(O)c1ccc(O)c(O)c1 [Protocatechuic acid, protocatechuic acid]	1.13 ± 0.17
O=C(O)Cc1c(/C=C/C(=O)O[C@H](Cc2ccc(O)c(O)c2)C(=O)O)ccc(O)c1O [Salvianolic acid D, salvianolic acid D]	1.09 ± 0.23
salvianolic acid B	1.52 ± 0.67

same assay, conditions: rat, 10 min, 100 μM, pH 7

Compound	TransportATP/TransportAMP ratio (net transport ratio)
O=C(/C=C/c1ccc(O)c(O)c1)O[C@H](Cc1ccc(O)c(O)c1)C(=O)O [Rosmarinic acid, rosmarinic acid]	1.39 ± 0.36
O=C(/C=C/c1ccc(O)c(O)c1/C=C/c1ccc(O)c(O)c1)O[C@H](Cc1ccc(O)c(O)c1)C(=O)O [Salvianolic acid A, salvianolic acid A]	0.75 ± 0.12
